Assay results as given in patent US8440652B2, “MST1 kinase inhibitors and methods of their use” (Lexicon Pharmaceuticals, Inc., priority 2011, dated 2013).
Read-outs that look alike come from different tables or passages of the source.

Target: T1, MST1 (Homo sapiens, UniProt Q13043)
T1 sequence (Q13043 1-487): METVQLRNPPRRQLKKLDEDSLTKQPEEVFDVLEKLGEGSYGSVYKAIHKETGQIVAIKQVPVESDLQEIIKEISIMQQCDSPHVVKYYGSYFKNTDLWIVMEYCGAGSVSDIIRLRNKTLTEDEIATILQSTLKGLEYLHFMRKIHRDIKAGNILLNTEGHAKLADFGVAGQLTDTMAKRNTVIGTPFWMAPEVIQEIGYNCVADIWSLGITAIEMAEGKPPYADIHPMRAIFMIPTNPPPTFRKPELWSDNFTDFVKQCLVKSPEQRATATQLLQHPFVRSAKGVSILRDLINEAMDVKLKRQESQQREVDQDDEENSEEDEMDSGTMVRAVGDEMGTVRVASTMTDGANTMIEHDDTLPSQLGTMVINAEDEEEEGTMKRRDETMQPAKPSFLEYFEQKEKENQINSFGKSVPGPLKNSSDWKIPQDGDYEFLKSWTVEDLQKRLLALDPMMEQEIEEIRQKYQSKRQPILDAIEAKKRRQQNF
Test: In vitro measurement of MST1 inhibition (Z′-Lyte kinase assay)
Assay type: biochemical
Protocol: Assays were performed in low-volume 384-well black proxiplates (Perkin Elmer, PE-Blk-Proxi-6008269). Eight compounds were first diluted into LDV (Echo) plates using a Multiprobe, at a starting concentration of 1 mM compound in 100% DMSO. Using the ECHO, 75 nl compound was pinged into 384-well proxiplates. The starting concentration of compound in each assay plate is 7.5 uM, followed by 3-fold dilutions, to give quadruplicate ten-point concentration curves. A 3× solution of MST1 enzyme in kinase buffer (Invitrogen, PR4940C) was added to wells containing compound or DMSO controls, followed by a 10 minute preincubation step. Reactions were initiated by adding 5 μL of a mixture of ATP and Z′-Lyte S/T Pep 7 (Invitrogen, PV3180) and proceeded at RT for 1 hour. […] At the end of the kinase reaction, 10 ul of developing solution (Invitrogen, catalog #PR4876B; development buffer A diluted […] in development buffer B) was added to each well and incubated at RT for 1 hr. All wells were read on a Tecan at 400 nm excitation and 460 nm/530 nm emission. Plus and minus enzyme controls were used to calculate percent inhibition and IC50 curves were generated using Excel.

[1] = 1 μM ATP, read-out: IC50 (μM) 1 μM ATP
[2] = 50 μM ATP, read-out: IC50 (μM) 50 μM ATP

| SMILES | IC50 [1] [µM] | IC50 [2] [µM] |
| --- | --- | --- |
| NC(=O)c1ccc(-c2cc(-c3cn[nH]c3)cnc2N)cc1 [4-(2-amino-5-(1H-pyrazol-4-yl)pyridin-3yl)benzamide] |  | < 0.15 |
| COCc1ccc(-c2cnc(N)c(C(=O)NC3CCCCC3)n2)cc1 [3-amino-N-cyclohexyl-6-(4-(methoxymethyl)phenyl)pyrazine-2-carboxamide] |  | < 0.15 |
| Nc1ncc(-c2ccc(S(=O)(=O)NC3CC3)cn2)cc1-c1ccc2c(c1)CCNC2=O [6′-amino-N-cyclopropyl-5′-(1-oxo-1,2,3,4-tetrahydroisoquinolin-6-yl)-[2,3′-bipyridine]-5-sulfonamide] | < 0.01 | < 0.01 |
| Nc1ncc(-c2ccc(S(=O)(=O)NC3CC3)c(Cl)c2)cc1-c1ccc2c(c1)CCNC2=O [4-(6-amino-5-(1-oxo-1,2,3,4-tetrahydroisoquinolin-6-yl)pyridin-3-yl)-2-chloro-N-cyclopropylbenzenesulfonamide] | < 0.01 | < 0.01 |
| CC(C)Oc1cc(-c2nc(-c3ccc(S(=O)(=O)N(C)C4CC4)cc3)cnc2N)ccc1C(N)=O [4-(3-amino-6-(4-(N-cyclopropyl-N-methylsulfamoyl)phenyl)pyrazin-2-yl)-2-isopropoxybenzamide] | < 0.05 | < 0.01 |
| CC(=O)NS(=O)(=O)c1ccc(-c2cnc(N)c(-c3ccc(C(N)=O)cc3)c2)cc1 [4-(5-(4-(N-acetylsulfamoyl)phenyl)-2-aminopyridin-3-yl)benzamide] |  | < 0.15 |
| CN(C1CCC1)S(=O)(=O)c1ccc(-c2cnc(N)c(-c3ccc4c(c3)CCNC4=O)n2)cc1 [4-(5-amino-6-(1-oxo-1,2,3,4-tetrahydroisoquinolin-6-yl)pyrazin-2-yl)-N-cyclobutyl-N-methylbenzenesulfonamide] | < 0.01 | < 0.01 |
| [2H]C1([2H])CNC(=O)c2ccc(-c3nc(-c4ccc(S(=O)(=O)N(C)C5CC5)cc4)cnc3N)cc21 [4-(5-amino-6-(4,4-dideutero-1-oxo-1,2,3,4-tetrahydroisoquinolin-6-yl)pyrazin-2-yl)-N-cyclopropyl-N-methylbenzenesulfonamide] | < 0.01 | < 0.01 |
| Nc1ncc(-c2ccc(S(=O)(=O)NC3CC3)cc2)cc1-c1ccc2c(c1)OCCNC2=O [4-(6-amino-5-(5-oxo-2,3,4,5-tetrahydrobenzo[f][1,4]oxazepin-8-yl)pyridin-3-yl)-N-cyclopropylbenzenesulfonamide] | < 0.01 | < 0.01 |

Further lines, results first:

| IC50 [1] [µM] | IC50 [2] [µM] | SMILES |
| --- | --- | --- |
| < 0.05 | < 0.01 | CC(=O)NCc1ccc(-c2cnc(N)c(-c3ccc4c(c3)CCNC4=O)c2)cc1 [N-(4-(6-amino-5-(1-oxo-1,2,3,4-tetrahydroisoquinolin-6-yl)pyridin-3-yl)benzyl)acetamide] |
| < 0.05 | < 0.01 | CC(C)(c1ccc(-c2cnc(N)c(-c3ccc4c(c3)CCNC4=O)c2)cc1)N1CCOCC1 [6-(2-amino-5-(4-(2-morpholinopropan-2-yl)phenyl)pyridin-3-yl)-3,4-dihydroisoquinolin-1(2H)-one] |
| < 0.01 | < 0.01 | [2H]C([2H])([2H])N(C([2H])([2H])[2H])S(=O)(=O)c1ccc(-c2cnc(N)c(-c3ccc4c(c3)CCNC4=O)n2)cc1 [4-(5-amino-6-(1-oxo-1,2,3,4-tetrahydroisoquinolin-6-yl)pyrazin-2-yl)-N,N-di(trideuteromethyl)benzenesulfonamide] |
| < 0.01 | < 0.01 | [2H]C1([2H])CNC(=O)c2ccc(-c3nc(-c4ccc(S(=O)(=O)N(C5CC5)C([2H])([2H])[2H])cc4)cnc3N)cc21 [4-(5-amino-6-(4,4-dideutero-1-oxo-1,2,3,4-tetrahydroisoquinolin-6-yl)pyrazin-2-yl)-N-cyclopropyl-N-trideuteromethyl-benzenesulfonamide] |
| < 0.01 | < 0.01 | CCN(C)S(=O)(=O)c1ccc(-c2cnc(N)c(-c3ccc4c(c3)CCNC4=O)c2)cc1 [4-(6-amino-5-(1-oxo-1,2,3,4-tetrahydroisoquinolin-6-yl)pyridin-3-yl)-N-ethyl-N-methylbenzenesulfonamide] |
